Here are results for 72 molecules from patent US7973069B2 (PTC Therapeutics, Inc., priority 2004, dated 2011).

Values joined by “and” are separate entries in the source; they are usually repeats but may differ in a detail not shown here. Equal entries are not always repeated.

This test relates to HCV replicon. Format: cell-based.
One may read the IC50 as the concentration at which inhibition is half-maximal. A low value points to greater potency. In turn, `CC(C)(C)OC(=O)Nc1ccc(-c2c(C#N)c3ccc(OCCN4CCCC4)cc3n2C2CCC2)cc1` [Compound 1121] displayed an IC50 of less than 0.5 µM.
The result for `CCCCn1c(-c2cccc(NC(=O)OCCC)c2)c(C#N)c2ccc(OCC)cc21` [Compound 1022] reads < 0.5 µM and > 2 µM.
In the case of `CCOc1ccc2c(C#N)c(-c3ccc(NC(=O)OCCF)cc3)n(CC)c2c1` [Compound 950] it was 0.5 to 2 µM; in that of `CCOc1ccc2c(C#N)c(-c3ccc(NC(=O)Cc4ccccc4)cc3)n(CC)c2c1` [Compound 900], 0.5 to 2 µM.
Regarding `CCOc1ccc2c(C#N)c(-c3ccc(NP(=O)(OC)OC)cc3)n(C3CCC3)c2c1` [Compound 937], the IC50 is less than 0.5 µM.
For `CC(C)OC(=O)Nc1ccc(-c2c(C#N)c3ccc(Oc4ncccn4)cc3n2C(C)C)cc1` [Compound 2392], the IC50 is less than 0.5 µM.
For `CCn1c(-c2ccc(N3CCNC3=O)cc2)c(C#N)c2ccc(OCCCN3CCCC3)cc21` [Compound 1085], the IC50 is less than 0.5 µM.
Regarding `CCn1c(-c2ccc(NC(=O)OCCF)cc2)c(C#N)c2ccc(OCCF)cc21` [Compound 945], the IC50 fell in the range of 0.5 to 2 µM.
The result for `CC(OC(=O)Nc1ccc(-c2c(C#N)c3ccc(OCCN(C)C)cc3n2C2CCC2)cc1)C1CC1` (stereo not drawn) [Compound 1327] reads less than 0.5 µM.
The result for `CCOc1ccc2c(C#N)c(-c3ccc(NC(=O)OC(C)C)cc3)n(CC3CCC3)c2c1` [Compound 1169] reads less than 0.5 µM.
The result for `CCn1c(-c2ccc(NC(=O)OCC(C)C)cc2)c(C#N)c2ccc(OC(F)F)cc21` [Compound 1134] reads 0.5 to 2 µM; that for `CCCOC(=O)Nc1ccc(-c2c(C#N)c3ccc(OCCCN4CCOCC4)cc3n2CC)cc1` [Compound 1122], less than 0.5 µM; that for `CCCCNC(=O)Nc1ccc(-c2c(C#N)c3ccc(OCC)cc3n2CCCC)cc1` [Compound 1018], less than 0.5 µM.
With `CCOc1ccc2c(C#N)c(-c3ccc(NC(=O)NC4CCC4)cc3)n(C3CCC3)c2c1` [Compound 1168], the IC50 is less than 0.5 µM.
Consider `CCOc1ccc2c(C#N)c(-c3ccc(NC(=O)O[C@H](C)C4CC4)cc3)n(C3CCC3)c2c1` [Compound 2174], for which the IC50 was less than 0.5 µM.
In the case of `CC(C)NC(=O)Nc1ccc(-c2c(C#N)c3ccc(OCCn4cncn4)cc3n2C2CCC2)cc1` [Compound 1318] it was less than 0.5 µM; in that of `CCOc1ccc2c(C#N)c(-c3ccc(NC(=O)OC4CCC4)cc3)n(C3CCC3)c2c1` [Compound 1167], less than 0.5 µM.
The result for `CCn1c(-c2ccc(NS(=O)(=O)C3CC3)cc2)c(C#N)c2ccc(OCCCN3CCOCC3)cc21` [Compound 1117] reads 0.5 to 2 µM; that for `CCS(=O)(=O)Nc1ccc(-c2c(C#N)c3cc(OC)ccc3n2C2CCC2)cc1` [Compound 1161], < 0.5 µM and 0.5 to 2 µM; that for `CCOc1ccc2c(C#N)c(-c3ccc(NC(=O)NC(C)C)cc3)n(C3CCCC3)c2c1` [Compound 1221], less than 0.5 µM.
For the molecule `CCOc1ccc2c(C#N)c(-c3ccc(NC(=O)OCC4(C)CC4)cc3)n(C3CCC3)c2c1` [Compound 1208], the IC50 is less than 0.5 µM.
The result for `CCCCn1c(-c2ccc(NC(=O)NC(C)C)cc2)c(C#N)c2ccc(OCC)cc21` [Compound 1017] reads less than 0.5 µM.
`CCOc1ccc2c(C#N)c(-c3ccc(NC(=O)NC(C)C)cc3)n(C3CCC3)c2c1` [Compound 1080]: the IC50 is less than 0.5 µM.
In the case of `CCCOC(=O)Nc1ccc(-c2c(C#N)c3cc(OC)ccc3n2C2CCC2)cc1` [Compound 1177] it was < 0.5 µM and 0.5 to 2 µM; in that of `CCOC(=O)Nc1ccc(-c2c(C#N)c3cc(OCC)ccc3n2C2CCC2)cc1` [Compound 1193], less than 0.5 µM; in that of `CCCCOC(=O)Nc1ccc(-c2c(C#N)c3ccc(O)cc3n2CC)cc1` [Compound 1086], less than 0.5 µM.
The result for `N#Cc1c(-c2ccc(NC(=O)OCC3CCC3)cc2)n(C2CCC2)c2cc(OCC3CCCO3)ccc12` (stereo not drawn) [Compound 1287] reads less than 0.5 µM.
Molecule `CC(C)NC(=O)Nc1ccc(-c2c(C#N)c3ccc(-c4ccccn4)cc3n2C2CCC2)cc1` [Compound 2440] came in with an IC50 of less than 0.5 µM.
In the case of `CCOc1ccc2c(C#N)c(-c3ccc(NC(=O)OC(C)C(C)C)cc3)n(C3CCC3)c2c1` (stereo not drawn) [Compound 1290] it was less than 0.5 µM; in that of `CCn1c(-c2ccc(NC(=O)C(C)(C)C)cc2)c(C#N)c2ccc(OC(F)(F)F)cc21` [Compound 915], 0.5 to 2 µM; in that of `C=CCNC(=O)Nc1ccc(-c2c(C#N)c3ccc(OC(F)F)cc3n2CC)cc1` [Compound 1139], 0.5 to 2 µM.
In the case of `CCOc1ccc2c(c1)c(C#N)c(-c1ccc(NC(=O)OC(C)CC)cc1)n2C1CCC1` (stereo not drawn) [Compound 1323] it was less than 0.5 µM; in that of `CCCNC(=O)Nc1ccc(-c2c(C#N)c3ccc(OCC)cc3n2C2CCCC2)cc1` [Compound 1144], less than 0.5 µM.
In turn, `C=CCNC(=O)Nc1ccc(-c2c(C#N)c3cc(OC)ccc3n2CCC)cc1` [Compound 1001] had an IC50 of 0.5 to 2 µM.
For `CCCCOC(=O)Nc1cccc(-c2c(C#N)c3ccc(OCCCN4CCOCC4)cc3n2CC)c1` [Compound 1042], the IC50 lay in the range of 0.5 to 2 µM.
Regarding `CCn1c(-c2ccc(NC(=O)OCCF)cc2)c(C#N)c2ccc(OCCCN3CCOCC3)cc21` [Compound 1113], the IC50 lay in the range of 0.5 to 2 µM.
`CCCNC(=O)Nc1ccc(-c2c(C#N)c3ccc(OC(F)F)cc3n2C2CCC2)cc1` [Compound 1187] showed an IC50 of 0.5 to 2 µM.
In the case of `CCOc1ccc2c(c1)c(C#N)c(-c1ccc(NC(=O)OC(C)C)cc1)n2C1CCC1` [Compound 1195] it was less than 0.5 µM.
Consider `CCn1c(-c2ccc(NC(=O)N3CCCCC3)cc2)c(C#N)c2ccc(OC)cc21` [Compound 1088], for which the IC50 is 0.5 to 2 µM.
Turning to `CCCCNC(=O)Nc1ccc(-c2c(C#N)c3cc(OCC)ccc3n2C2CCC2)cc1` [Compound 1225], the IC50 was 0.5 to 2 µM and < 0.5 µM.
In the case of `CC(C)NC(=O)Nc1ccc(-c2c(C#N)c3ccc(OCCN4CCC4)cc3n2C2CCC2)cc1` [Compound 1316] it was less than 0.5 µM.
In the case of `CCOc1ccc2c(C#N)c(-c3ccc(N(CC)CC)cc3)n(C3CC3)c2c1` [Compound 1310] it was 0.5 to 2 µM; in that of `CCOc1ccc2c(C#N)c(-c3ccc(NC(=O)OC4CCCC4)cc3)n(C(C)CC)c2c1` (stereo not drawn) [Compound 1222], 0.5 to 2 µM; in that of `CCOC(=O)Nc1ccc(-c2c(C#N)c3ccc(OC)cc3n2C2CCC2)cc1` [Compound 1073], 0.5 to 2 µM.
The result for `CCOc1ccc2c(C#N)c(-c3ccc(N)cc3)n(C3CCC3)c2c1` [Compound 939] reads 0.5 to 2 µM; that for `C=CCNC(=O)Nc1ccc(-c2c(C#N)c3ccc(OCCCN4CCOCC4)cc3n2CC)cc1` [Compound 1125], less than 0.5 µM; that for `CC(C)OC(=O)Nc1ccc(-c2c(C#N)c3ccc(OCCN(C)C)cc3n2C2CCC2)cc1` [Compound 1269], less than 0.5 µM.
`CC(OC(=O)Nc1ccc(-c2c(C#N)c3ccc(OC(F)F)cc3n2CC2CC2)cc1)C1CC1` (stereo not drawn) [Compound 1267] showed an IC50 of 0.5 to 2 µM.
For `CCn1c(-c2ccc(N3CCOC3=O)cc2)c(C#N)c2ccc(OCCCCl)cc21` [Compound 1052], the IC50 is 0.5 to 2 µM.
In the case of `CCCOc1ccc2c(C#N)c(-c3ccc(NC(=O)OCC4CC4)cc3)n(C(C)C)c2c1` [Compound 1241] it was less than 0.5 µM; in that of `CCOc1ccc2c(C#N)c(-c3ccc(NC(=O)OC(C)C)cc3)n(C(C)C)c2c1` [Compound 1058], less than 0.5 µM.
In the case of `CCn1c(-c2ccc(NC(=O)OCCCl)cc2)c(C#N)c2ccc(OCCCN3CCOCC3)cc21` [Compound 1116] it was 0.5 to 2 µM.
`COC(=O)c1ccc2c(C#N)c(-c3ccc(NC(=O)OC(C)C)cc3)n(C3CCC3)c2c1` [Compound 1300]: the IC50 was less than 0.5 µM.
The result for `CCOc1ccc2c(C#N)c(-c3ccc(NC(=O)C4CCC4)cc3)n(CC)c2c1` [Compound 899] reads 0.5 to 2 µM; that for `CCn1c(-c2ccc(NS(=O)(=O)CC)c(C)c2)c(C#N)c2ccc(OC)cc21` [Compound 960], 0.5 to 2 µM; that for `CCCCn1c(-c2ccc(NC(=O)NCC)cc2)c(C#N)c2ccc(OCC)cc21` [Compound 1016], 0.5 to 2 µM.
The result for `CCn1c(-c2ccc(NC(=O)CCc3ccccc3)cc2)c(C#N)c2ccc(OC(F)(F)F)cc21` [Compound 916] reads 0.5 to 2 µM; that for `CCOc1ccc2c(C#N)c(-c3cccc(NC(=O)OCC(C)C)c3)n(C3CCC3)c2c1` [Compound 1037], 0.5 to 2 µM; that for `CC(C)NC(=O)Nc1ccc(-c2c(C#N)c3ccc(OCCN4CCOCC4)cc3n2C2CCC2)cc1` [Compound 1315], 0.5 to 2 µM.
Take `N#Cc1c(-c2ccc(NC(=O)OCC3CCC3)cc2)n(C2CCC2)c2cc(OCCCCN3CCCC3)ccc12` [Compound 1257]: the IC50 was less than 0.5 µM.
Regarding `CCOc1ccc2c(C#N)c(-c3ccc(NC(=O)OC(C)CC)cc3)n(C3CCC3)c2c1` (stereo not drawn) [Compound 1265], the IC50 was less than 0.5 µM.
The molecule `CCn1c(-c2cccc(NC(=O)OCCCl)c2)c(C#N)c2ccc(OCCCN3CCOCC3)cc21` [Compound 1044] showed an IC50 of less than 0.5 µM.
Take `COc1ccc2c(c1)c(C#N)c(-c1ccc(NC(=O)OCC(C)C)cc1)n2C1CCC1` [Compound 1178]: the IC50 is less than 0.5 µM.
The result for `COc1ccc2c(C#N)c(-c3ccc(NC(=O)NC(C)C)cc3)n(C3CCC3)c2c1` [Compound 1082] reads 0.5 to 2 µM; that for `COc1ccc2c(C#N)c(-c3ccc(NS(=O)(=O)C(C)C)cc3)n(C3CCC3)c2c1` [Compound 1103], 0.5 to 2 µM.
In the case of `CCOC(=O)Nc1ccc(-c2c(C#N)c3ccc(OCCCCl)cc3n2CC)cc1` [Compound 1031] it was less than 0.5 µM; in that of `CCN(C)CCOc1ccc2c(C#N)c(-c3ccc(NC(=O)OC(C)C)cc3)n(C3CCC3)c2c1` [Compound 1270], less than 0.5 µM; in that of `CCOc1ccc2c(C#N)c(-c3ccc(NC(=O)OCC4CCCO4)cc3)n(C3CCC3)c2c1` (stereo not drawn) [Compound 1240], less than 0.5 µM.
`CCn1c(-c2ccc(NS(=O)(=O)C3CC3)cc2)c(C#N)c2ccc(OC(F)F)cc21` [Compound 929]: the IC50 is less than 0.5 µM.
In the case of `CCn1c(-c2ccc(NC(=O)OC)c(F)c2)c(C#N)c2ccc(OC)cc21` [Compound 875] it was 0.5 to 2 µM; in that of `CC(C)OC(=O)Nc1ccc(-c2c(C#N)c3ccc(OCCNC4CC4)cc3n2C2CCC2)cc1` [Compound 1279], less than 0.5 µM.
Molecule `CCOc1ccc2c(C#N)c(-c3ccc(NC(=O)OCc4ccccc4)cc3)n(CC3CC3)c2c1` [Compound 1155] returned an IC50 of 0.5 to 2 µM.
